Assay results published in article PMC10298657, “QbD-Optimized, Phospholipid-Based Elastic Nanovesicles for the Effective Delivery of 6-Gingerol: A Promising Topical Option for Pain-Related Disorders” (International Journal of Molecular Sciences, 2023).

Assay: ABTS radical scavenging activity
Format: biochemical
Conditions: ABTS assay
Protocol: The ability of the nanocarriers to scavenge the free radical ABTS was used to measure their antioxidant activity. To create an ABTS free radical, a stock solution of 7 mM ABTS was combined with 2.45 mM potassium persulfate and agitated in the dark for 12 h. […] Then, a standard solution (ascorbic acid) was mixed with the ABTS+ solution and incubated for 10 min in a 37 °C water bath. After that, various concentrations (10–100 µg/mL) of all samples were prepared in ethanol, 3 mL of the solution and 1 mL of the samples were combined, and the absorbance was measured at 734 nm using a UV spectrophotometer after 6 min [66]. Finally, the following equation was used to compute ABTS scavenging activity: Scavenging (%)=(Absorbance blank−Absorbance sample)/Absorbance blank×100

| SMILES | Antioxidant activity (ABTS scavenging) [%] |
| --- | --- |
| O=C1O[C@H]([C@@H](O)CO)C(O)=C1O [standard solution, ascorbic acid] | 91.14 ± 0.24 |
| CCCCC[C@H](O)CC(=O)CCc1ccc(O)c(OC)c1 [Formulation 6-G, 6-gingerol] | 67.01 ± 1.11 |
